Patent US11718605B2, “Heterocyclic compounds as immunomodulators” (Incyte Corporation, priority 2016, dated 2023)

What follows are compounds tested against PD-1/PD-L1 protein/protein interaction (Homo sapiens (Human), UniProt Q9NZQ7) (assay: PD-1/PD-L1 Homogeneous Time-Resolved Fluorescence (HTRF) Binding Assay). Conditions: recombinant human PD-L1 (19-238) His-tag 10 nM, human PD-1 (25-167) Fc tag 3 nM; 25° C., PBS pH 7.4.
Chain of PD-1/PD-L1 protein/protein interaction (Q9NZQ7 19-238): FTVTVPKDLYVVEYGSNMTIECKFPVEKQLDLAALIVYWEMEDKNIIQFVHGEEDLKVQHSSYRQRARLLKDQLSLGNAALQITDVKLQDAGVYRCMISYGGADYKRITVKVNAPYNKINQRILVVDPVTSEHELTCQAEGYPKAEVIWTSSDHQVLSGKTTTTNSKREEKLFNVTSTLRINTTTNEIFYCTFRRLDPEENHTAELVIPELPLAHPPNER
Experimental: Example A. PD-1/PD-L1 Homogeneous Time-Resolved Fluorescence (HTRF) Binding Assay
The assays were conducted in a standard black 384-well polystyrene plate with a final volume of 20 μL. Inhibitors were first serially diluted in DMSO and then added to the plate wells before the addition of other reaction components. The final concentration of DMSO in the assay was 1%. The assays were carried out at 25° C. in the PBS buffer (pH 7.4) with 0.05% Tween-20 and 0.1% BSA. Recombinant human PD-L1 protein (19-238) with a His-tag at the C-terminus was purchased from AcroBiosystems (PD1-H5229). Recombinant human PD-1 protein (25-167) with Fc tag at the C-terminus was also purchased from AcroBiosystems (PD1-H5257). PD-L1 and PD-1 proteins were diluted in the assay buffer and 10 μL was added to the plate well. Plates were centrifuged and proteins were preincubated with inhibitors for 40 minutes. The incubation was followed by the addition of 10 μL of HTRF detection buffer supplemented with Europium cryptate-labeled anti-human IgG (PerkinElmer-AD0212) specific for Fc and anti-His antibody conjugated to SureLight®-Allophycocyanin (APC, PerkinElmer-AD0059H). After centrifugation, the plate was incubated at 25° C. for 60 min. before reading on a PHERAstar FS plate reader (665 nm/620 nm ratio). Final concentrations in the assay were—3 nM PD1, 10 nM PD-L1, 1 nM europium anti-human IgG and 20 nM anti-His-Allophycocyanin. IC50 determination was performed by fitting the curve of percent control activity versus the log of the inhibitor concentration using the GraphPad Prism 5.0 software.
`COc1cccc(-c2cccc(NC(=O)c3cc(CNCCO)cn(C)c3=O)c2C)c1F` [Example 12, N-(2′-fluoro-3′-methoxy-2-methylbiphenyl-3-yl)-5-((2-hydroxyethylamino)methyl)-1-methyl-2-oxo-1,2-dihydropyridine-3-carboxamide] showed an IC50 of no more than 100 nM.
For `CCn1cc(CN2CCCC[C@H]2C(=O)O)cc(C(=O)Nc2cccc(-c3ccccc3)c2C)c1=O` [Example 9, (2S)-1-[(1-ethyl-5-{[(2-methylbiphenyl-3-yl)amino]carbonyl}-6-oxo-1,6-dihydropyridin-3-yl)methyl]piperidine-2-carboxylic acid], the IC50 was 500 to 10000 nM.
For `CCn1cc(CNCCO)cc(C(=O)Nc2cccc(-c3ccccc3)c2C)c1=O` [Example 10, 1-ethyl-5-{[(2-hydroxyethyl)amino]methyl}-N-(2-methylbiphenyl-3-yl)-2-oxo-1,2-dihydropyridine-3-carboxamide], the IC50 was 100 to 500 nM.
Work on `Cc1c(NC(=O)c2cc(CNCCO)cn(C)c2=O)cccc1-c1ccccc1` [Example 2, 5-{[(2-hydroxyethyl)amino]methyl}-1-methyl-N-(2-methylbiphenyl-3-yl)-2-oxo-1,2-dihydropyridine-3-carboxamide] yielded an IC50 of no more than 100 nM.
`Cn1cc(CNCCO)cc(C(=O)Nc2cccc(C3CCCCC3)c2C#N)c1=O` [Example 3, N-(2-cyano-3-cyclohexylphenyl)-5-{[(2-hydroxyethyl)amino]methyl}-1-methyl-2-oxo-1,2-dihydropyridine-3-carboxamide] was tested, and the IC50 was 100 to 500 nM.
With `Cn1cc(CNCCO)cc(C(=O)Nc2cccc(-c3ccc4c(c3)OCCO4)c2C#N)c1=O` [Example 4, N-[2-cyano-3-(2,3-dihydro-1,4-benzodioxin-6-yl)phenyl]-5-{[(2-hydroxyethyl)amino]methyl}-1-methyl-2-oxo-1,2-dihydropyridine-3-carboxamide] the IC50 was no more than 100 nM.
In the case of `Cn1cc(CNCCO)cc(C(=O)Nc2cccc(-c3ccccc3)c2C#N)c1=O` [Example 7, N-(2-cyanobiphenyl-3-yl)-5-{[(2-hydroxyethyl)amino]methyl}-1-methyl-2-oxo-1,2-dihydropyridine-3-carboxamide], the IC50 is reported as 100 to 500 nM.
`Cn1cc(CNCCO)cc(C(=O)Nc2cccc(-c3ccccc3F)c2C#N)c1=O` [Example 6, N-(2-cyano-2′-fluorobiphenyl-3-yl)-5-{[(2-hydroxyethyl)amino]methyl}-1-methyl-2-oxo-1,2-dihydropyridine-3-carboxamide] was tested, and the IC50 was no more than 100 nM.
`Cc1c(NC(=O)c2cc(CNCCO)cn(C)c2=O)cccc1-c1cccc2c1cnn2C` [Example 11, 5-{[(2-hydroxyethyl)amino]methyl}-1-methyl-N-[2-methyl-3-(1-methyl-1H-indazol-4-yl)phenyl]-2-oxo-1,2-dihydropyridine-3-carboxamide] was tested, and the IC50 was no more than 100 nM.
Work on `Cc1c(NC(=O)c2cc(CN3CCCC[C@H]3C(=O)O)cn(C)c2=O)cccc1-c1ccccc1` [Example 1, (2S)-1-[(1-methyl-5-{[(2-methylbiphenyl-3-yl)amino]carbonyl}-6-oxo-1,6-dihydropyridin-3-yl)methyl]piperidine-2-carboxylic acid] yielded an IC50 of no more than 100 nM.
With `Cc1c(NC(=O)c2cc(CNCCO)cn(C)c2=O)cccc1-c1ccc2c(c1)OCCO2` [Example 13, N-[3-(2,3-dihydro-1,4-benzodioxin-6-yl)-2-methylphenyl]-5-{[(2-hydroxyethyl)amino]methyl}-1-methyl-2-oxo-1,2-dihydropyridine-3-carboxamide] the IC50 was no more than 100 nM.
`COc1cccc(-c2cccc(NC(=O)c3cc(CNCCO)cn(C)c3=O)c2C#N)c1` [Example 5, N-(2-cyano-3′-methoxybiphenyl-3-yl)-5-{[(2-hydroxyethyl)amino]methyl}-1-methyl-2-oxo-1,2-dihydropyridine-3-carboxamide] was tested, and the IC50 was no more than 100 nM.
In the case of `Cn1cc(CNCCO)cc(C(=O)Nc2cccc(-c3cccc4c3cnn4C)c2C#N)c1=O` [Example 8, N-(2-cyano-3-(1-methyl-1H-indazol-4-yl)phenyl)-5-((2-hydroxyethylamino)methyl)-1-methyl-2-oxo-1,2-dihydropyridine-3-carboxamide], the IC50 is reported as no more than 100 nM.
